Reference: US10144742B2 (Millennium Pharmaceuticals, Inc., priority 2014, dated 2018)
pIC50: −log10 of the molar value. Like-named read-outs stand apart in the source and are kept apart here.

What was measured:
PC3 cells = experiment: PC3 growth inhibition (Cell-titer glo, 72 hours); assay type: cell-based; settings: Homo sapiens, read-out: Percent Inhibition (PC3 growth inhibition); for inhibition at 1.667 µM: compound concentration 1.667 μM
How it was run: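 Compounds in AIM serum-free medium were applied for 72 h at 37 °C, 5% CO2 to PC3 cells plated overnight from RPMI1640 culture. Luminescence after 10 min CellTiter-Glo, normalised to DMSO, gave % viability at 1 μM or 1.667 μM, or GI50/LD50.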

hNAMPT protein = hNAMPT protein (Homo sapiens (Human), UniProt P43490); experiment: NAMPT enzyme assay (TR-FRET/HTRF, BodiPY ligand, anti 6His-Tb); assay type: binding; settings: for pIC50: NAMPT IC50 range class, read-out: IC50; for inhibition at 1 µM: read-out: Percent Inhibition
Chain of hNAMPT protein (P43490 whole entry): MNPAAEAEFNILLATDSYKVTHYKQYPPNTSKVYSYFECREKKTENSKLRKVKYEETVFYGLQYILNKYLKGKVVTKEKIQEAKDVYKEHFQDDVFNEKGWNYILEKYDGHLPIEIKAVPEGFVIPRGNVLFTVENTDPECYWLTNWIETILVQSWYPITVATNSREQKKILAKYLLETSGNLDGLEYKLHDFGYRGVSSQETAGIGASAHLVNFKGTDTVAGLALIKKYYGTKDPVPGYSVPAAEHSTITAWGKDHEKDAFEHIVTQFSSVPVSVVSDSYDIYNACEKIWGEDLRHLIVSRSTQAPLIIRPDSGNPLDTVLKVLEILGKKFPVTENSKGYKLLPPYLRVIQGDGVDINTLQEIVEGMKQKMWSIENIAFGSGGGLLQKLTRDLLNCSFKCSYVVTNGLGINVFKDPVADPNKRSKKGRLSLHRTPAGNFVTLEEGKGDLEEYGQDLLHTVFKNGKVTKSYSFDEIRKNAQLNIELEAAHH
How it was run: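 Compound or DMSO was incubated for 1 h at room temperature, protected from light, with BodiPY ligand and hNAMPT labelled by terbium anti-6His antibody. The 520 nm to 486 nm emission ratio after 320 nm excitation gave inhibition versus vehicle, from which concentration-response curves yielded IC50.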

[1] = PC-3, PC3 cells, 72 hours, Cell-titer glo
[2] = PC-3, compound concentration 1 μM, PC3 cells, 72 hours, Cell-titer glo

Structure (SMILES)	inhibition at 1.667 µM (PC3 cells; [1])	pIC50 (hNAMPT protein)	inhibition at 1 µM (hNAMPT protein; compound concentration 1 μM)	inhibition at 1 µM (PC3 cells; [2])	inhibition at 1 µM (PC3 cells; PC-3, 72 h)	inhibition at 1 µM (hNAMPT protein)
Cn1cncc1CCNC(=O)c1ccc2nc(N3CCC(N4CCOCC4)CC3)c(-c3ccc(F)cc3)nc2c1 [Compound I-82, 3-(4-Fluorophenyl)-N-[2-(1-methyl-1H-imidazol-5-yl)ethyl]-2-[4-(morpholin-4-yl)piperidin-1-yl]quinoxaline-6-carboxamide]	2%	> 7.00	98%	–	–	–
O=C(NCCn1cccn1)c1ccc2nc(-c3ccc(F)cc3)c(-c3ccc(F)cc3)nc2c1 [Compound I-83, 2,3-bis(4-fluorophenyl)-N-[2-(1H-pyrazol-1-yl)ethyl]quinoxaline-6-carboxamide]	–	5.00 to 5.70	33%	96%	–	–
CN(CCc1cccnc1)C(=O)c1ccc2nc(-c3ccc(F)cc3)c(-c3ccc(F)cc3)nc2c1 [Compound I-84, 2,3-bis(4-fluorophenyl)-N-methyl-N-[2-(pyridin-3-yl)ethyl]quinoxaline-6-carboxamide]	–	5.00 to 5.70	17%	85%	–	–
CC(C)(C)OC(=O)NCc1cccc(-c2nc3cc(C(=O)NCCCn4ccnc4)ccc3nc2-c2ccccc2)c1 [Compound I-85, tert-Butyl [3-(7-{[3-(1H-imidazol-1-yl)propyl]carbamoyl}-3-phenylquinoxalin-2-yl)benzyl]carbamate]	–	5.00 to 5.70	–	–	8%	25%
O=C(NCCOc1cccnc1)c1ccc2nc(Cl)c(-c3ccc(F)cc3)nc2c1 [Compound I-86, 2-chloro-3-(4-fluorophenyl)-N-[2-(pyridin-3-yloxy)ethyl]quinoxaline-6-carboxamide]	3%	> 7.00	62%	–	–	–
O=C(NCCCn1ccnc1)c1ccc2nc(-c3ccccc3)c(N3CCCC(O)C3)nc2c1 (stereo not drawn) [Compound I-87, 3-(3-hydroxypiperidin-1-yl)-N-[3-(1H-imidazol-1-yl)propyl]-2-phenylquinoxaline-6-carboxamide]	–	5.70 to 6.00	39%	-7%	–	–
O=C(NCCCn1ccnc1)c1ccc2nc(CN3CCOCC3)c(-c3ccccc3)nc2c1 [Compound I-88, N-[3-(1H-imidazol-1-yl)propyl]-2-(morpholin-4-ylmethyl)-3-phenylquinoxaline-6-carboxamide]	–	5.70 to 6.00	41%	-7%	–	–
NS(=O)(=O)c1cccc(-c2nc3ccc(C(=O)NCCCn4ccnc4)cc3nc2-c2ccccc2)c1 [Compound I-89, N-[3-(1H-imidazol-1-yl)propyl]-3-phenyl-2-(3-sulfamoylphenyl)quinoxaline-6-carboxamide]	–	6.30 to 7.00	68%	-7%	–	–
O=C(NCCCn1ccnc1)c1ccc2nc(N3CCC(O)C3)c(-c3ccccc3)nc2c1 (stereo not drawn) [Compound I-90, 2-(3-hydroxypyrrolidin-1-yl)-N-[3-(1H-imidazol-1-yl)propyl]-3-phenylquinoxaline-6-carboxamide]	–	6.00 to 6.30	54%	-7%	–	–
COc1cccc(-c2nc3cc(C(=O)NCCCc4ncc[nH]4)ccc3nc2N2CCC(N3CCOCC3)CC2)c1 [Compound I-91, N-[3-(1H-imidazol-2-yl)propyl]-3-(3-methoxyphenyl)-2-[4-(morpholin-4-yl)piperidin-1-yl]quinoxaline-6-carboxamide]	2%	> 7.00	99%	–	–	–
O=C(NCCCn1ccnc1)c1ccc2nc(-c3ccccn3)c(-c3ccccc3)nc2c1 [Compound I-92, N-[3-(1H-imidazol-1-yl)propyl]-3-phenyl-2-(pyridin-2-yl)quinoxaline-6-carboxamide]	–	5.70 to 6.00	48%	-7%	–	–
O=C(NCCc1cccnc1)c1ccc2nc(-c3ccccc3)c(-c3ccccc3)nc2c1 [Compound I-93, 2,3-diphenyl-N-[2-(pyridin-3-yl)ethyl]quinoxaline-6-carboxamide]	–	6.00 to 6.30	52%	15%	–	–
